From publication PMC7738880, “Identification of novel CD44v6-binding peptides that block CD44v6 and deliver a pro-apoptotic peptide to tumors to inhibit tumor growth and metastasis in mice” (Theranostics, 2021)
Residues, ends and D or L forms follow the SMILES beside them.

How the values were obtained:
[1] = tested on: c-Met in MDA-MB231 cells; experiment: HGF-induced c-Met internalization (confocal microscopy); assay type: cell-based, human; conditions: peptide pre-treatment 10 min, HGF 25 ng/mL 30 or 60 min
Experimental: To examine the internalization of CD44v6, 1 × 10^5 MDA-MB231 cells were seeded in each well of an 8-well chamber slide and cultured for 24 h. Next, the cells were incubated with a fresh culture medium containing FITC-labeled peptides (10 μM) at 37 °C for 10, 30, and 60 min and then stained with an anti-human CD44v6 mouse monoclonal antibody (clone no. VFF-7; Santa Cruz Biotechnology). The cells were then incubated with an Alexa Fluor 594-labeled goat anti-mouse IgG secondary antibody (Merck). To examine the internalization of c-Met, cells were incubated with recombinant human HGF at 25 ng/mL (R&D Systems, Minneapolis, MN) for 30 or 60 min with or without pre-treatment with peptides (20 µM) for 10 min. After incubation, the cells were stained with an anti-Met rabbit polyclonal antibody (clone no. C-28, 1:100 dilution; Santa Cruz Biotechnology). The cells were then incubated with an Alexa Fluor 594-labeled goat anti-rabbit IgG secondary antibody (Merck). For nuclear staining, the cells were incubated with DAPI and the ProLong antifade reagent before observation under a confocal microscope (Zeiss).

[2] = target: T1, recombinant human CD44v6-Fc protein (Homo sapiens, UniProt P16070); experiment: SPR analysis of peptide binding affinity to CD44v6-Fc; conditions: biotin-conjugated peptide on streptavidin chip, CD44v6-Fc 0.125-2 µM, steady-state 1:1 fit, pH 7.4
T1 sequence (P16070 386-428 limits assumed): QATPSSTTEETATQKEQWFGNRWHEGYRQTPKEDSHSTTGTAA
Experimental: The binding affinity (KD) of CD44v6-binding peptides to the CD44v6 protein was measured using an SPR instrument (Reichert Technologies, Depew, NY). A streptavidin chip was used as the immobilization substrate and exposed to biotin-labeled peptides (25 μΜ) at 5 μL/min for 50 min. The streptavidin only surface was used for the reference surface. All SPR signals were corrected by subtraction with the response of the reference surface. After washing, the chip was flowed with a solution of CD44v6-Fc or CD44-Fc protein (R&D Systems, Minneapolis, MN) in binding buffer (137 mM NaCl, 10 mM phosphate, 2.7 mM KCl pH 7.4, 62.5 µM BSA, and 0.005% Tween-20) at concentrations of 0.125, 0.25, 0.5, 1, and 2 μM at 10 μL/min for 3 min. Five concentrations (0.125, 0.25, 0.5, 1, and 2 µM) of CD44v6-Fc and CD44-Fc were used in a single-cycle dynamic SPR measurements. Resonance units were recorded and analyzed using Scrubber 2.0 software (BioLogic Software, Campbell, Australia). KD values were calculated by analyzing the steady-state binding data by fitting the curve of binding level against concentration with a 1:1 binding model (GraphPad Prism 7.0 software).

[3] = tested on: Panc-1 cells; experiment: Saturation cell binding assay, Panc-1; set-up: species or system human; conditions: biotin-labeled peptide 0-256 µM, 4 °C, 1 h
Experimental: Supplementary Information
Supplementary Materials and Methods
Saturation binding assays to determine the cellular binding affinities of peptides Cells (5 × 10^3 cells per well in a 96-well plate) were incubated with 1% bovine serum albumin (BSA) for 30 min and with different concentrations of biotin-labeled peptides (0, 2, 4, 8, 16, 32, 64, 128, and 256 µM) at 4 °C for 1 h. After washing, the cells were incubated with horseradish peroxidase-conjugated neutravidin (1:10,000 dilution; ThermoFisher Scientific, Waltham, MA) for 30 min at room temperature. Enzymatic activity was detected using a 3,3ʹ,5,5ʹ-tetramethylbenzidine substrate (ThermoFisher Scientific), and the reaction was stopped using 2 M sulfuric acid. The absorbance at 450 nm was measured in each well using a microplate reader (Tecan, Mannedorf, Switzerland). The KD values were then calculated using GraphPad Prism 6 software (GraphPad Inc., La Jolla, CA). […]
10 µM biotin-labeled CD44v6-binding peptides at 4 °C for 1 h. […]
Scientific) for 30 min at room temperature. […]

[4] = tested on: 4T1 cells; experiment: Transwell cell migration and invasion assays, 4T1; assay type: cell-based, mouse; conditions: HGF 25 ng/mL, 24 h
Experimental: Transwell chambers (24-wells) with 8 μm pores were obtained from Corning (Corning, NY). MDA-MB231 and 4T1 cells (1 × 10^6 cells) were harvested, resuspended in 200 μL of DMEM containing CD44v6-binding peptides (20 µM), and then seeded into the upper chamber of the transwell chambers. The lower chamber was filled with 600 μL of DMEM containing 25 ng/mL HGF. After 24 h of incubation, cells that migrated into the reverse side of the transwell membrane were fixed with methanol, stained with crystal violet, and then counted under a light microscope. An average of five visual fields was obtained. For invasion assays, the transwell membrane was pre-coated with 300 µg/mL of Matrigel (Corning). […]
phosphorylation in 4T1 cells. (C-D) Transwell migration (C) and invasion (D) assays of 4T1 cells pre-treated or not with 5 μg/mL NLN and NEW for 10 min and subsequently treated with 25 ng/mL HGF for 10 min, followed by incubation for 24 h. Scale bars = 20 μm. Graphs (right panels) represent the quantification of the cell numbers in ten randomly selected fields. Data are shown as the means ± S.E. of three independent experiment. **, P < 0.01; ***, P < 0.001; n.s, not significant compared with HGF by one-way ANOVA.

Structure (SMILES)	HGF-induced internalization of c-Met [1]	Kd [2]	Kd [3]	HGF-induced cell migration and invasion, 4T1 [4]
CC(C)C[C@H](NC(=O)[C@H](CCC(N)=O)NC(=O)[C@H](Cc1c[nH]c2ccccc12)NC(=O)[C@H](CCC(=O)O)NC(=O)[C@H](CC(N)=O)NC(=O)[C@@H](N)CS)C(=O)N[C@@H](CCCCN)C(=O)N[C@@H](CO)C(=O)N[C@@H](CS)C(=O)O [NEW] (H-CNEWQLKSC-OH; N-terminus and C-terminus assumed)	inhibited	0.085 ± 0.018 µM	7 ± 3 µM	inhibited
CC[C@H](C)[C@H](NC(=O)[C@@H](NC(=O)[C@H](CC(N)=O)NC(=O)[C@H](CC(C)C)NC(=O)[C@H](CC(N)=O)NC(=O)[C@@H](N)CS)[C@@H](C)O)C(=O)N[C@@H](CC(=O)O)C(=O)N[C@H](C(=O)N[C@@H](CS)C(=O)O)[C@@H](C)O [NLN] (H-CNLNTIDTC-OH; N-terminus and C-terminus assumed)	inhibited	0.253 ± 0.079 µM	8 ± 5 µM	inhibited
